Results as given in patent US20120142645A1, “NEUROACTIVE STEROID COMPOSITIONS AND METHODS OF USE FOR LOWERING CHOLESTEROL” (priority 2009, published 2012).
Entries after “also recorded” stand apart in the source; their conditions may differ.

Experiments:
[1] = test system: patients with schizophrenia or schizoaffective disorder; test: SANS negative symptoms; randomized placebo-controlled 8-week trial of adjunctive pregnenolone (100, 300, then 500 mg/day oral); format: in vivo, human; conditions: for SANS Total, change: text prints it as positive mean change (improvement); for SANS Total, difference PG vs placebo: points; for SANS Affect subscale score / SANS Alogia subscale score / SANS Anhedonia/asociality subscale score / SANS Attention subscale score / SANS Avolition/apathy subscale score / SANS Total score: mean ± SD, n = 8
Protocol: Study Design and Subjects. Disclosed herein is a placebo-controlled, double-blind, parallel group, randomized trial of adjunctive pregnenolone for the treatment of cognitive and negative symptoms in patients with schizophrenia or schizoaffective disorder. […] Patients received a total of 6 study visits, which took place every two weeks. […] The trial was conducted at a single site, the Durham Veterans Affairs Medical Center in Durham, N.C. The protocol was approved by the local institutional review board and conducted under FDA Investigational New Drug (IND) #71,768. The ClinicalTrials.gov number for this study is NCT00560937.
Subjects were outpatients between the ages of 18 and 65 with schizophrenia or schizoaffective disorder diagnosed by DSM-IV/DSM-IV-TR criteria utilizing the Structured Clinical Interview (First et al., 1996) and medical records. All subjects were between the ages of 18-65 and provided informed consent. Duration of illness was greater than one year for all enrolled patients. To be eligible for the trial, patients had to be taking a second-generation antipsychotic (aripiprazole, olanzapine, quetiapine, or risperidone) for at least 8 weeks, with no changes in antipsychotic dosing in the preceding 4 weeks. Patients receiving first-generation antipsychotics were excluded. Concomitant psychiatric medications were permissible (antidepressants, mood stabilizers, anticholinergics, other), provided that patients were receiving stable doses of all of these medications in the 4 weeks preceding the trial and throughout the entire duration of the study. Any change in psychiatric medications at any point during the study rendered a patient ineligible to continue participation.
(§1) During the screening visit (Visit 1), patients received a physical exam, vital signs, and electrocardiogram (EKG), as well as baseline laboratory measures consisting of serum electrolytes, glucose, creatinine, blood urea nitrogen (chemistry 7 panel), liver function tests, complete blood count (CBC), urinalysis, urine toxicology test, thyroid stimulating hormone (TSH), and prolactin, and serum pregnancy test if female. These tests were also repeated at the completion of the study (Visit 6). In addition, patients received an interim EKG 4 weeks post-randomization, as well as a serum pregnancy test if female (Visit 4). Patients also received a chemistry 7 panel, CBC, and liver function tests at Visits 2, 3, 4, and 5 (i.e., at all study visits). Psychiatric symptoms were assessed at baseline using the Scale for the Assessment of Negative Symptoms (Andreasen, 1983), the Positive and Negative Symptom Scale (PANSS; Kay et al., 1987), the Calgary Depression Rating Scale (CDRS; Addington et al., 1990), the Clinical Global Impressions Improvement (CGI-I) and Severity (CGI-S) scales, the Barnes Akathisia Scale (BAS; Barnes, 1989), the Simpson Angus Scale for Extrapyramidal Symptoms (SAS; Simpson & Angus, 1970), the Quality of Life Scale (QOL; Heinrichs et al., 1984), and the Hillside Side Effects Scale. One research nurse with five years of experience in the conduction of schizophrenia clinical trials completed both psychiatric and cognitive assessments throughout the study, and was trained to one point of divergence on each PANSS item.

[2] = test system: patients with schizophrenia or schizoaffective disorder; test: Serum analytes and EKG QTc interval at screening and final visit; same trial; format: in vivo, human; conditions: for Serum LDL levels post-treatment compared to baseline: paired t-test p=0.002; for EKG QTc interval / Serum Cholesterol / Serum Glucose / Serum Prolactin / Serum TSH / Serum Triglycerides / Serum LDL / Serum HDL: mean ± SD; for Serum LDL: n = 7; for Serum HDL: n = 8
Text: as §1

[3] = single oral dose 175 mg; over the course of 4-8 hours; Roberts, 1995; cited from earlier work
[4] = Difference in change from Week 0 to Week 8

## CC(=O)[C@H]1CC[C@H]2[C@@H]3CC=C4C[C@@H](O)CC[C@]4(C)[C@H]3CC[C@]12C [PG, pregnenolone]
[1]; Change from Week 0 to Week 8
  SANS Affect subscale, change: −4.3 ± 1.7
  SANS Alogia subscale, change: −1.9 ± 0.8
  SANS Anhedonia/asociality subscale, change: −2.4 ± 1.3
  SANS Attention subscale, change: −1.6 ± 0.4
  SANS Avolition/apathy subscale, change: −0.3 ± 0.3
  SANS Total, change: −10.4 ± 10.2
[1]; Change from Week 0 to Week 8, listed as pregnenolone
  SANS Total, change: 10.38±10.18
[1]; [4]
  SANS Affect subscale, difference PG vs placebo: −4.5 ± 1.9
  SANS Alogia subscale, difference PG vs placebo: −1.5 ± 0.8
  SANS Anhedonia/asociality subscale, difference PG vs placebo: −1.6 ± 1.3
  SANS Attention subscale, difference PG vs placebo: −0.5 ± 0.5
  SANS Avolition/apathy subscale, difference PG vs placebo: 0.1 ± 0.6
  SANS Total, difference PG vs placebo: −8.0 ± 3.7
[1]; Difference in change from Week 0 to Week 8, listed as Pregnenolone
  SANS Total, difference PG vs placebo: approximately 8
[1]; Week 0 (baseline)
  SANS Affect subscale score: 13.4 ± 5.0
  SANS Alogia subscale score: 8.8 ± 3.6
  SANS Anhedonia/asociality subscale score: 12.0 ± 4.5
  SANS Attention subscale score: 5.6 ± 1.1
  SANS Avolition/apathy subscale score: 8.3 ± 2.5
  SANS Total score: 50.8 ± 12.2
[1]; Week 0 (baseline), listed as pregnenolone
  SANS Total score: 47.56±12.09
[1]; Week 4
  SANS Affect subscale score: 14.3 ± 3.2
  SANS Alogia subscale score: 7.8 ± 3.2
  SANS Anhedonia/asociality subscale score: 10.4 ± 4.1
  SANS Attention subscale score: 5.3 ± 1.0
  SANS Avolition/apathy subscale score: 8.1 ± 1.0
  SANS Total score: 45.8 ± 8.8
[1]; Week 8
  SANS Affect subscale score: 11.9 ± 0.4
  SANS Alogia subscale score: 6.9 ± 2.1
  SANS Anhedonia/asociality subscale score: 9.6 ± 3.5
  SANS Attention subscale score: 4.0 ± 0
  SANS Avolition/apathy subscale score: 8.0 ± 0.5
  SANS Total score: 40.4 ± 3.5
[2]; 8 weeks of pregnenolone
  EKG QTc interval following treatment: no change
  Laboratory parameters including glucose, triglycerides, HDL, TSH, and prolactin, post-treatment compared to baseline: no significant changes
[2]; 8 weeks of pregnenolone, listed as Pregnenolone
  Serum LDL levels post-treatment compared to baseline: significantly decreased
[2]; 8 weeks of pregnenolone, listed as pregnenolone
  Serum LDL levels post-treatment compared to baseline: significantly reduced; also recorded: significantly decreased
[2]; 8 weeks of pregnenolone, paired t-test p=0.008
  Cholesterol levels following treatment compared to baseline: significantly decreased
[2]; Screening
  EKG QTc interval: 414.8 ± 19.2 ms
  Serum Cholesterol: 185.8 ± 43.3 mg/100 ml
  Serum Glucose: 117.9 ± 36.2 mg/100 ml
  Serum Prolactin: 7.69 ± 5.91 ng/mL
  Serum TSH: 1.45 ± 0.64 μIU/ml
  Serum Triglycerides: 194.3 ± 87.8 mg/100 ml
  Serum LDL: 119.1 ± 26.0 mg/100 ml
  Serum HDL: 39.3 ± 16.5 mg/100 ml
[2]; Week 8
  EKG QTc interval: 406.8 ± 20.9 ms
  Serum Glucose: 119.0 ± 33.5 mg/100 ml
  Serum Prolactin: 7.85 ± 6.47 ng/mL
  Serum TSH: 1.26 ± 0.72 μIU/ml
  Serum Triglycerides: 237.6 ± 119.5 mg/100 ml
  Serum HDL: 37.0 ± 17.4 mg/100 ml
[2]; Week 8, p 0.002 vs screening
  Serum LDL: 90.9 ± 29.4 mg/100 ml
[2]; Week 8, p 0.008 vs screening
  Serum Cholesterol: 166.6 ± 36.2 mg/100 ml
[2]; during the 8-week trial
  Glucose levels, serum electrolyte panels, thyroid stimulating hormone, prolactin levels, and liver function tests: unchanged
[3]
  Serum pregnenolone levels after single oral dose: approximately doubles
